This test addresses Potassium voltage-gated channel subfamily KQT member 2 (Rattus norvegicus) (UniProt O88943). The test can be described thus: PubChem AID 504839. The following applies: KCNQ2-CHO cells, automated patch clamp current.

The source of these data is PubChem BioAssay AID504839 (Johns Hopkins Ion Channel Center, 2011).

SMILES strings stand for the structures.

Potassium voltage-gated channel subfamily KQT member 2 (Rattus norvegicus), sequence (O88943 whole entry, looked up): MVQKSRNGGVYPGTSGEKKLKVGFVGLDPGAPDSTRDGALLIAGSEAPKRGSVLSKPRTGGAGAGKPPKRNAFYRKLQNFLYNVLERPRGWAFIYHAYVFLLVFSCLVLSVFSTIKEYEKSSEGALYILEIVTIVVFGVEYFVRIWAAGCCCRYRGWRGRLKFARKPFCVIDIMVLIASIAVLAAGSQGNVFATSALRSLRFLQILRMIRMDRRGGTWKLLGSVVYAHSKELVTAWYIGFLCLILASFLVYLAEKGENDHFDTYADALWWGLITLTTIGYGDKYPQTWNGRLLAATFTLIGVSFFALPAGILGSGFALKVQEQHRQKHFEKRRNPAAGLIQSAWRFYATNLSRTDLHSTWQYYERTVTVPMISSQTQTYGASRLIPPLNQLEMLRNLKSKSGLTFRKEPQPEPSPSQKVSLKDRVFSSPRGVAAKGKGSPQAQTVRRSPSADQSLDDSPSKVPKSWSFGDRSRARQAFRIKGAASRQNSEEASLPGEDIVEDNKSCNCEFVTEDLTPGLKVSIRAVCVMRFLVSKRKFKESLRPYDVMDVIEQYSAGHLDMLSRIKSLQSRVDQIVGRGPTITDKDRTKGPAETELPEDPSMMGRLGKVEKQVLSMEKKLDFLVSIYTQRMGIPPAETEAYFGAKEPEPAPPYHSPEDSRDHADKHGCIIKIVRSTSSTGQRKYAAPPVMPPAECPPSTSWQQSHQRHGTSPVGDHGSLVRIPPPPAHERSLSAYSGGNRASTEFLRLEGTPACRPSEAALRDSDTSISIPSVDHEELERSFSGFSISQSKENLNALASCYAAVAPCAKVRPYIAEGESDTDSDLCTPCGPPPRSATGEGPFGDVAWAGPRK

`CCC(C(=O)Nc1ccccc1N1CCCC1)c1ccccc1` (stereo unspecified): the IC50 is 160 nM.
